The values that follow come from patent publication US20150164794A1, “METHOD FOR PREPARING AQUEOUS NANOPARTICLE SUSPENSIONS OF DERIVATIVES OF 4,9-DIHYDROXY-NAPHTHO[2,3-b]FURAN ALIPHATIC ACID ESTERS” (Zhoushan Haizhongzhou Xinsheng Pharmaceuticals, Co., Ltd., priority 2012, published 2015).

Read-outs that look alike come from different tables or passages of the source.

The series is described as follows: Pharmacokinetic study of nanoparticle suspension NS-I-4 in ICR mice. It is filed as in vivo. The note with it: for MRT last: read-out: MRT(0-t); for MRT inf: read-out: MRT(0-∞); for Vd: read-out: Vz. As to the method: Nanoparticle suspension NS-I-4, prepared according to the method as described in example 5, was administered intravenously into ICR mice at a dosage of 30 mg/kg. At different time points (5 min, 10 min, 30 min, 1 h, 2 h, 3 h, 4 h, 6 h) after the drug injection, blood samples were withdrawn from the dosed mice, and then were centrifuged at 6,000 rpm for 10 minutes at 4° C. The supernatant plasma samples were fetched and treated with 9 times volume of acetonitrile containing 0.5% trifluoromethane sulfonic acid. The treated plasmas were centrifuged at 12,000 rpm for 15 minutes at 4° C., and then the supernatants were fetched and analyzed with HPLC.
During treatment of blood samples before HPLC analysis, active drug 2-acetyl-4,9-dihydroxy-naphtho[2,3-b]furan and active metabolite 2-(1-hydroxyl)ethyl-4,9-dihydroxy-naphtho[2,3-b]furan are both oxidized into 2-acetyl-naphtho[2,3-b]furan-4,9-dione and 2-(1-hydroxyl)ethyl-naphtho[2,3-b]furan-4,9-dione, respectively (see scheme 1).
Scheme 1: Compound I is degraded by esterases into active drug, which is further metabolized into active metabolite. During pre-treatment for HPLC analysis, active drug and metabolite are oxidized by oxygen from air to oxidized drug and oxidized metabolite, respectively.
The Waters HPLC system used in this study includes: 1525 dual pump, 2998 photodiode array detector, 2707 auto sampler, Breeze 2 control and analysis software. The HPLC column used in this study: Phenomenex Luna C18, 250×4.60 mm 5 micron. The HPLC mobile phase: buffer A, 80% water, 20% acetonitrile; buffer B, 10% water, 70% acetonitrile, 20% tetrahydrofuran. The HPLC mobile phase gradient: 0-3 min, 50% buffer B to 50% buffer B, 3-10 min, 50% buffer B to 100% buffer B, 10-20 min, 100% buffer B to 100% buffer B, 20-22 min, 100% buffer B−50% buffer B, 22-25 min, 50% buffer B to 50% buffer B; flow rate, 1 ml/min.
Time courses of compound I, oxidized drug and oxidized active metabolite are illustrated in FIG. 2.

Where [1] appears, read: analyte in mouse plasma after NS-I-4 intravenously 30 mg/kg, ICR mice.
[2] abbreviates: iv, analyte in mouse plasma after NS-I-4 intravenously 30 mg/kg, ICR mice.
Setting [3] is: iv, analyte in mouse plasma after NS-I-4 intravenously 30 mg/kg, ICR mice, read-out: AUC(0-t).
The mark [4] stands for this setting: iv, analyte in mouse plasma after NS-I-4 intravenously 30 mg/kg, ICR mice, read-out: Cmax.
[5] abbreviates: iv, analyte in mouse plasma after NS-I-4 intravenously 30 mg/kg, ICR mice, read-out: Tmax.

A word on the AUC(0-t): it is exposure summed from dosing to a finite time, without extrapolation to infinity. As a reminder, the Cmax is the highest concentration seen after dosing. A word on the Tmax: it is the time at which the peak concentration occurs. The Vz is a proportionality between amount in the body and measured concentration, not a real space. The low end stands for confinement near the circulation, the high end for extensive tissue distribution. Turning to `CC(O)c1cc2c(o1)C(=O)c1ccccc1C2=O` (stereo not shown) [2-(1-hydroxy)ethyl-naphtho[2,3-b]furan-4,9-dione], under setting [1], the “AUC(0-t)” value was 3801 ng·h/mL, the “AUC(0-∞)” value is 3999 ng·h/mL, the CLz was 250.07 mL/min/kg and the Cmax was 1695 ng/mL. Moreover, under setting [1], the “MRT(0-t)” value turned out to be 86.28 min, the “MRT(0-∞)” value stood at 97.68 min, the Tmax turned out to be 30 min and the Vz was determined as 19.051 L/kg. Moreover, the t1/2z under setting [1] amounted to 52.8 min.
As usually defined, the AUC(0-inf) is total exposure, with the tail of the curve extrapolated. Lower therefore signals low exposure. Under setting [1], `CC(=O)c1cc2c(o1)C(=O)c1ccccc1C2=O` [2-acetyl-naphtho[2,3-b]furan-4,9-dione] gave a CLz of 58.62 mL/min/kg and a t1/2z of 184.4 min. Moreover, under setting [2], the AUC(0-inf) turned out to be 8530 ng·h/mL, the MRT last was found to be 74.9 min, the MRT inf is 147 min and the Vd came out at 15.6 L/kg. The AUC(0-t) under setting [3] amounted to 7420 ng·h/mL. For the same compound, under setting [4], the Cmax came to 6130 ng/mL. Further, the Tmax under setting [5] was found to be 10 min.
Consider `CCCCCCCC(=O)Oc1c2ccccc2c(OC(=O)CCCCCCC)c2oc(C(C)=O)cc12` [Compound I, 2-acetyl-4,9-bis(octanoyloxy)-naphtho[2,3-b]furan], for which the metabolic fate entry (administered intravenously into ICR mice) is “degraded by esterases into active drug 2-acetyl-4,9-dihydroxy-naphtho[2,3-b]furan”. Under setting [1], this compound registered a CLz of 1.97 mL/min/kg and a t1/2z of 23.8 min. Under setting [2], the AUC(0-inf) worked out at 255000 ng·h/mL, the MRT last is 37.7 min, the MRT inf was 37.7 min and the Vd was determined as 0.067 L/kg. The area under the curve AUC(0-t) under setting [3] worked out at 255000 ng·h/mL. Also, under setting [4], the Cmax was found to be 288000 ng/mL. In addition, the time of peak concentration (Tmax) under setting [5] was 10 min.
